Some test systems named below: SK-OV-3 ovarian; HCT-15 colon; OVCAR-8 ovarian; OVCAR-3 ovarian; MDA-MB-231 breast; HCT-116 colon; SF-295 CNS; UO-31 renal; LOX IMVI melanoma; EKVX NSCLC.
Holding throughout (test): inhibition of tumour cell growth, NCI panel, 48 h

Where “and” joins values, the source holds several entries; their conditions need not be identical. Identical values can stand only once.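 Protocol summary: plate cells (96-well), add compound at 5 concentrations, incubate 48 h, interpolate endpoints linearly. At the GI50, growth is halved. TGI: concentration producing complete growth inhibition.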

In the case of `CC(C)(C)c1ccc(C2CC(=O)C3=C(C2)Nc2ccccc2N(C(=O)c2ccccc2Cl)C3c2ccc(F)cc2)cc1` (centres undefined), the GI50 in the assay with SK-OV-3 ovarian, in the assay on HCT-15 colon, in the assay on OVCAR-8 ovarian, in the assay with OVCAR-3 ovarian, in the assay with MDA-MB-231 breast and in the assay on HCT-116 colon was above 100 µM each time. In addition, the GI50 in the assay with SF-295 CNS, with UO-31 renal and with LOX IMVI melanoma was above 100 µM throughout. Also, the TGI in the assay on SK-OV-3 ovarian, in the assay with HCT-15 colon, in the assay with OVCAR-8 ovarian, with OVCAR-3 ovarian, with MDA-MB-231 breast and in the assay on HCT-116 colon was above 100 µM in each case. The TGI with SF-295 CNS, in the assay on UO-31 renal and with LOX IMVI melanoma was above 100 µM each time.
As to `CC(C)[P+](c1ccccc1)(c1ccccc1)c1ccccc1`, the GI50 is 22.4 µM with SK-OV-3 ovarian; above 100 µM with HCT-15 colon; 4.42 µM in the assay on OVCAR-8 ovarian; 4.49 µM in the assay with OVCAR-3 ovarian; 10.6 µM in the assay with MDA-MB-231 breast; 3.94 µM in the assay with HCT-116 colon. The figures for the GI50 in the assay with SF-295 CNS, with UO-31 renal and in the assay with LOX IMVI melanoma were 7.41 µM, above 100 µM and 9.94 µM, respectively. In addition, the TGI with SK-OV-3 ovarian, with HCT-15 colon, in the assay with OVCAR-8 ovarian, in the assay on OVCAR-3 ovarian, in the assay with MDA-MB-231 breast and in the assay on HCT-116 colon was above 100 µM in each case. The TGI is 36.6 µM in the assay with SF-295 CNS, above 100 µM in the assay with UO-31 renal and above 100 µM in the assay on LOX IMVI melanoma.
`CN1CCN(C(=O)c2ccc(NC(=O)Nc3ccc(-c4nc(N5CCOCC5)c5cccn5n4)cc3)cc2)CC1`: the GI50 was 0.0223 µM in the assay with SK-OV-3 ovarian; 0.548 µM in the assay with HCT-15 colon; 0.0486 µM in the assay with OVCAR-8 ovarian; 0.042 µM in the assay with EKVX NSCLC; 0.0431 µM with MDA-MB-231 breast; 0.0507 µM in the assay on HCT-116 colon. For the same compound, the GI50 with SF-295 CNS is 0.0322 µM; in the assay on UO-31 renal it was 0.304 µM; in the assay on LOX IMVI melanoma, 0.0206 µM. In addition, the TGI was 0.121 µM in the assay on SK-OV-3 ovarian; 12.6 µM with HCT-15 colon; above 100 µM in the assay on OVCAR-8 ovarian; 0.703 µM in the assay with EKVX NSCLC; 11.3 µM in the assay on MDA-MB-231 breast; 15.2 µM in the assay on HCT-116 colon. The TGI in the assay on SF-295 CNS came to 0.239 µM; in the assay on UO-31 renal it was 5.82 µM; in the assay on LOX IMVI melanoma, 1.74 µM.
`Nc1c(C(=O)c2cccc(C(O)CO)c2)cnn1-c1ccc(F)cc1` (centres undefined): the GI50 with SK-OV-3 ovarian, with HCT-15 colon, in the assay with OVCAR-8 ovarian, with OVCAR-3 ovarian, with MDA-MB-231 breast and in the assay with HCT-116 colon was above 25 µM in each case. In addition, the GI50 in the assay on SF-295 CNS, with UO-31 renal and in the assay on LOX IMVI melanoma was above 25 µM throughout. Further, the TGI with SK-OV-3 ovarian, with HCT-15 colon, in the assay with OVCAR-8 ovarian, with OVCAR-3 ovarian, in the assay with MDA-MB-231 breast and in the assay on HCT-116 colon was above 25 µM throughout. Besides, the TGI with SF-295 CNS, in the assay on UO-31 renal and in the assay on LOX IMVI melanoma was above 25 µM in each case.
Turning to `FC(F)c1ncc(-c2ccc(C(F)(F)F)cc2)c(NC2CCCCCC2)n1`, the GI50 with SK-OV-3 ovarian, in the assay with HCT-15 colon, in the assay with OVCAR-8 ovarian, in the assay on OVCAR-3 ovarian, in the assay on MDA-MB-231 breast and in the assay on HCT-116 colon was above 10 µM each time. In addition, the GI50 in the assay with SF-295 CNS, in the assay with UO-31 renal and in the assay with LOX IMVI melanoma was above 10 µM in each case. For the same compound, the TGI in the assay with SK-OV-3 ovarian, with HCT-15 colon, with OVCAR-8 ovarian, in the assay on OVCAR-3 ovarian, in the assay with MDA-MB-231 breast and with HCT-116 colon was above 10 µM throughout. For the same compound, the TGI in the assay with SF-295 CNS, in the assay on UO-31 renal and in the assay with LOX IMVI melanoma was above 10 µM each time.
For the compound `CN1CCN(Cc2ccc(NC(=O)c3[nH]ncc3Nc3ncnc4[nH]ccc34)cc2)CC1`, the GI50 was 1.01 µM with HCT-15 colon; 0.387 µM in the assay on OVCAR-8 ovarian; 0.255 µM in the assay on OVCAR-3 ovarian; 0.368 µM in the assay with EKVX NSCLC; 0.371 µM in the assay on MDA-MB-231 breast; 0.214 µM in the assay with HCT-116 colon. For the same compound, the figures for the GI50 in the assay on SF-295 CNS, with UO-31 renal and in the assay on LOX IMVI melanoma were 0.211 µM, 0.82 µM and 0.201 µM, respectively. For the same compound, the TGI came to 62.7 µM in the assay with HCT-15 colon; 3.09 µM in the assay with OVCAR-8 ovarian; 0.797 µM in the assay with OVCAR-3 ovarian; 2.64 µM with EKVX NSCLC; 0.941 µM with MDA-MB-231 breast; 13.1 µM with HCT-116 colon. Also, the TGI with SF-295 CNS was determined as 5.01 µM; in the assay on UO-31 renal it was 4.57 µM; in the assay with LOX IMVI melanoma it was 0.759 µM.
With `Cc1cc(=O)[nH]c(N/N=C/c2ccccc2O)n1`, the GI50 in the assay with SK-OV-3 ovarian was 6.88 µM; in the assay on HCT-15 colon, 4.63 µM; with OVCAR-8 ovarian, 3.1 µM; in the assay with OVCAR-3 ovarian it was 4.15 µM; in the assay with MDA-MB-231 breast, 6.05 µM; in the assay with HCT-116 colon, 2.46 µM. Also, the GI50 was 3.96 µM in the assay on SF-295 CNS, 5.3 µM with UO-31 renal and 8.02 µM in the assay with LOX IMVI melanoma. Moreover, the TGI in the assay with SK-OV-3 ovarian, in the assay with HCT-15 colon, with OVCAR-8 ovarian, in the assay on OVCAR-3 ovarian, in the assay with MDA-MB-231 breast and with HCT-116 colon was above 100 µM in each case. Besides, the TGI with SF-295 CNS, in the assay with UO-31 renal and in the assay on LOX IMVI melanoma was above 100 µM throughout.
As for `Cc1ccc(SSCC(O)C(O)CSSc2ccc(C)cc2)cc1` (centres undefined), the GI50 in the assay with SK-OV-3 ovarian was 10.8 µM and 22.8 µM; with OVCAR-8 ovarian, 4.21 µM and 17.4 µM; in the assay on OVCAR-3 ovarian, 6.31 µM and 13.9 µM; with SF-295 CNS it was 4.31 µM and 12.6 µM. Also, the TGI in the assay with SK-OV-3 ovarian is 23.7 µM and 43.6 µM; with HCT-15 colon, 28.2 µM and 27.7 µM; with OVCAR-8 ovarian, 14.6 µM and 31.2 µM; in the assay on OVCAR-3 ovarian it was 18.4 µM and 27 µM; with EKVX NSCLC, 36 µM and 36.1 µM; with HCT-116 colon it was 20.1 µM and 24.5 µM. The TGI in the assay on SF-295 CNS is 16.4 µM and 26.1 µM; in the assay with UO-31 renal, 17.6 µM and 15.3 µM; in the assay on LOX IMVI melanoma, 2.78 µM and 4.21 µM.

Source of the values: PubChem BioAssay (NCI).
